“And” between values parts separate entries of the source, which are not always exact repeats. Equal values may be shown once.
Columns and labels:
[1] = molecular target: T1, 5-LOX (Glycine max, UniProt P08170); assay: Lipoxygenase (5-LOX) inhibitory activity; assay type: biochemical; conditions: for inhibition at 62.5 µg/mL: read-out: % inhibition 5-LOX (mean ± SEM), 62.5 µg/ml; for inhibition at 250 µg/mL: read-out: % inhibition 5-LOX (mean ± SEM), 250 µg/ml; for inhibition at 500 µg/mL: read-out: % inhibition 5-LOX (mean ± SEM), 500 µg/ml; for inhibition at 1000 µg/mL: read-out: % inhibition 5-LOX (mean ± SEM), 1000 µg/ml
T1 sequence (P08170 1-839): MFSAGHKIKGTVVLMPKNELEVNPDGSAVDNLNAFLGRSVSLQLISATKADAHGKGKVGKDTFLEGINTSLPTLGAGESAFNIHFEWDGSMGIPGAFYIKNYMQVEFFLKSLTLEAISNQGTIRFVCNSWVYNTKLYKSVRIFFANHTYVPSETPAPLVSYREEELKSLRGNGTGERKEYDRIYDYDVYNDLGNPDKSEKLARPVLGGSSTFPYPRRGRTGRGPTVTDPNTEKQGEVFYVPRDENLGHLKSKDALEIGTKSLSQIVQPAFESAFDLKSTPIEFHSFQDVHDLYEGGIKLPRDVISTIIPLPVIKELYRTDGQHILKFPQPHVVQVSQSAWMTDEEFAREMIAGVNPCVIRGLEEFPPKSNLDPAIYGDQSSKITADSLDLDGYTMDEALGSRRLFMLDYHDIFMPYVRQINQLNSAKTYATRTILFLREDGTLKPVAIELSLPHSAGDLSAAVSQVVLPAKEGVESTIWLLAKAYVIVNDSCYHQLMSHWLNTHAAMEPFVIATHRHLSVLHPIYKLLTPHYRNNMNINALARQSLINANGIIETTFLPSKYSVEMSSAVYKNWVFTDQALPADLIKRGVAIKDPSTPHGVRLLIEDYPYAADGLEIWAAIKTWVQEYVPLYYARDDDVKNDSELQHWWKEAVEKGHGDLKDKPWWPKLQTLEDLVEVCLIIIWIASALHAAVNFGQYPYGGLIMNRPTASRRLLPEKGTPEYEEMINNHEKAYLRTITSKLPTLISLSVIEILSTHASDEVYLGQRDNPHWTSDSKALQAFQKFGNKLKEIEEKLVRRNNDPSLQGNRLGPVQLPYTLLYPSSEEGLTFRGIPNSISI
Procedure: The enzyme solution with a concentration of 10,000 U/ml was prepared. […] A solution (80 mM) of linoleic acid (substrate) was made. Likewise, a 50 mM phosphate buffer solution with a pH of 6.3 was prepared. The substrate, enzyme, and buffer were combined in equal proportions, each in a 2 ml volume. […] The inhibition percentage was determined by comparing the absorbance of the test samples with that of the positive control.

[2] = system: Swiss albino mice; assay: Hot plate test, involvement of adrenergic receptors; assay type: in vivo; conditions: single animals
Procedure: The analgesic effects of the isolated compounds were measured using the hot plate method at a monitored temperature of 55 ± 0.2°C. The Swiss albino mice were positioned on the heated surface of the hot plate, and the period from placement to the onset of licking their hind paws or starting jump movements was noted as the response latency (thermal reactions). The test compounds were injected intraperitoneally. […] The animal models were checked for thermal reactions at various time intervals after sample administration.
The outcomes of the positive control and tested compounds were compared in animals pretreated with yohimbine. […] Additionally, clonidine at a dose of 3 μg/kg was intravenously administered. The animals were then subjected to the hot plate method, as reported before.

SMILES	inhibition at 62.5 µg/mL [1]	inhibition at 250 µg/mL [1]	inhibition at 500 µg/mL [1]	inhibition at 1000 µg/mL [1]	Hot plate analysis (adrenergic), individual values ([2]; 30 Minutes)	Hot plate analysis (adrenergic), individual values ([2]; 45 Minutes)	Hot plate analysis (adrenergic), individual values ([2]; 15 minutes)	Hot plate analysis (adrenergic), individual values ([2]; 60 minutes)	Hot plate analysis (adrenergic), individual values ([2]; 90 minutes)
O=C(O)C=Cc1ccc(O)c(O)c1 [Compound 1, 3,4-dihydroxy-cinnamic acid]	59.4 ± 0.65%	66.9 ± 1.04%	71.8 ± 0.55%	77 ± 1.49%	4.43 and 5.1 and 6.1	6.87 and 5.78 and 7.3	6.2 and 4.27 and 5.81	5.1 and 5.99 and 6.59	4.1 and 4.82 and 5.34
O=C(CCc1ccc(O)cc1)c1c(O)cc(O)cc1O [Compound 2, 2-4-4-6-tetrahydroxy-dihydrochalcone]	21.1 ± 0.9%	31.1 ± 0.2%	36.7 ± 0.67%	41.43 ± 0.38%	3.19 and 3.88 and 3.2	4.32 and 3.32 and 3.1	2.32 and 1.9 and 3.49	3.2 and 2.9 and 4.02	3.1 and 2.75 and 3.61
